# Reference: patent publication US8299048B2, “Hexahydrocyclopentyl[f]indazole sulfonamides and derivatives thereof as selective glucocorticoid receptor modulators” (Merck Sharp & Dohme Corp., priority 2008, dated 2012)
# Where two headings read alike, the source gives them in different places.
# Molecular target: T1, human GR (Homo sapiens, UniProt P04150)
# T1 sequence (P04150 1-777): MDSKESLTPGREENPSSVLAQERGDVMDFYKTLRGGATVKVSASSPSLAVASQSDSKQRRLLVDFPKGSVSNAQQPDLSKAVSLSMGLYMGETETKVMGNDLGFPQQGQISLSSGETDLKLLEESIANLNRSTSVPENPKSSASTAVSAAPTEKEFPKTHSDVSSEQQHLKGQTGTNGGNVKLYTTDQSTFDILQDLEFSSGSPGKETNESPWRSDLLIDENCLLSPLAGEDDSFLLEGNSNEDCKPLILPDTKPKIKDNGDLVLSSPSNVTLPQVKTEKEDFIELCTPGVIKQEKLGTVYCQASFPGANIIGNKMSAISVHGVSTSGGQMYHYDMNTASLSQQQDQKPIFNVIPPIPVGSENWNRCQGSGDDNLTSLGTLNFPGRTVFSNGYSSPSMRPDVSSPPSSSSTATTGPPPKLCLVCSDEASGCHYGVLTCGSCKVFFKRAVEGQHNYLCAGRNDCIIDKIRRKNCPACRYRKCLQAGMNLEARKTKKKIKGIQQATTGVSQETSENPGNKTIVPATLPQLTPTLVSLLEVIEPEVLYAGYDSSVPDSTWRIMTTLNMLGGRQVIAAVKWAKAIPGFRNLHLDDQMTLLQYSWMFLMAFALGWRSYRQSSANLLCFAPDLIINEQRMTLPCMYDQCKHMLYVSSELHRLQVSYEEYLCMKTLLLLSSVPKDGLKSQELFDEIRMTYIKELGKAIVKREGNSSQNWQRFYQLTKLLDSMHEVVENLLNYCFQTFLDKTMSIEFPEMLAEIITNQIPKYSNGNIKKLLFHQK
# Test: Transrepression Assay (GITAR), TNFα-β-lactamase reporter in U937 cells
# Type: cell-based
# Design: U937 cells contain an endogenous glucocorticoid receptor (GR); endogenous in cells; host or cells: U937 cells stably transfected with the TNF-alpha promoter/beta-lactamase reporter
# Conditions: for GITAR > GRAMM % SEP: GITAR Emax minus GRAMMER Emax; for EC50: U937 cells, inflection point, read-out: Transrepression U937 Cells GITAR IP
# Summary of the method: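 Read-out: CCF2-AM β-lactamase signal after 70–90 min loading at room temperature. U937 TNF-α-promoter reporter cells (endogenous GR), compound 30–45 min at 37 °C, then PMA 5 ng/ml + LPS 100 ng/ml final, ~18 hr. Normalised to 100 nM dexamethasone = 100%.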
# [1] = U-937, U937 cells, maximum activity, read-out: Transrepression U937 Cells GITAR Emax
# [2] = U-937, activity repressed by 100 nM dexamethasone alone set as 100%, read-out: maximal activity in the transrepression (GITAR) assay
Structure (SMILES),GITAR > GRAMM % SEP,EC50,Emax [1],Emax [2]
"C[C@]12Cc3cnn(-c4ccc(F)cc4)c3C=C1CC[C@@H]2CN(CC#N)S(=O)(=O)c1ccc(-c2ccccc2)cc1 [Example 42, N-(cyanomethyl)-N-{[(4αR,5S)-1-(4-fluorophenyl)-4α-methyl-1,4,4α,5,6,7-hexahydrocyclopenta[f]indazol-5-yl]methyl}biphenyl-4-sulfonamide]",15.1%,0.391 µM,19.2%,> 5%
"Cc1noc(C)c1S(=O)(=O)N(CCCc1ccccc1)C[C@H]1CCC2=Cc3c(cnn3-c3ccc(F)cc3)C[C@@]21C [Example 194, N-{[(4αR,5S)-1-(4-fluorophenyl)-4α-methyl-1,4,4α,5,6,7-hexahydrocyclopenta[f]indazol-5-yl]methyl}-3,5-dimethyl-N-(3-phenylpropyl)isoxazole-4-sulfonamide]",14.4%,0.291 µM,56.2%,> 5%
"COC(=O)c1ccccc1CS(=O)(=O)N(CCc1ccccc1F)C[C@H]1CCC2=Cc3c(cnn3-c3ccc(F)cc3)C[C@@]21C [Example 188, methyl 2-{[([2-(2-fluorophenyl)ethyl]{[(4αR,5S)-1-(4-fluorophenyl)-4α-methyl-1,4,4α,5,6,7-hexahydrocyclopenta[f]indazol-5-yl]methyl}amino)sulfonyl]methyl}benzoate]",30.1%,0.19 µM,60.5%,> 5%
"CN1CCOc2cc(S(=O)(=O)N(CC#N)C[C@H]3CCC4=Cc5c(cnn5-c5ccc(F)cc5)C[C@@]43C)ccc21 [Example 39, N-(cyanomethyl)-N-{[(4αR,5S)-1-(4-fluorophenyl)-4α-methyl-1,4,4α,5,6,7-hexahydrocyclopenta[f]indazol-5-yl]methyl}-4-methyl-3,4-dihydro-2H-1,4-benzoxazine-7-sulfonamide]",15.5%,0.0349 µM,17.1%,> 5%
"CCS(=O)(=O)N(CCOC)C[C@H]1CCC2=Cc3c(cnn3-c3ccc(F)cc3)C[C@@]21C [Example 171, N-{[(4αR,5S)-1-(4-fluorophenyl)-4α-methyl-1,4,4α,5,6,7-hexahydrocyclopenta[f]indazol-5-yl]methyl}-N-(2-methoxyethyl)ethanesulfonamide]",16.7%,0.41 µM,88%,> 5%
"C[C@]12Cc3cnn(-c4ccc(F)cc4)c3C=C1CC[C@@H]2CN(CCCc1ccccc1)S(=O)(=O)CC(F)(F)F [Example 193, 2,2,2-trifluoro-N-{[(4αR,5S)-1-(4-fluorophenyl)-4α-methyl-1,4,4α,5,6,7-hexahydrocyclopenta[f]indazol-5-yl]methyl}-N-(3-phenylpropyl)ethanesulfonamide]",18.6%,0.17 µM,74%,> 5%
"C[C@]12Cc3cnn(-c4ccc(F)cc4)c3C=C1CC[C@@H]2CN(CC#N)S(=O)(=O)c1ccc(F)c(Cl)c1 [Example 20, 3-chloro-N-(cyanomethyl)-4-fluoro-N-{[(4αR,5S)-1-(4-fluorophenyl)-4α-methyl-1,4,4α,5,6,7-hexahydrocyclopenta[f]indazol-5-yl]methyl}benzenesulfonamide]",1.6%,0.373 µM,69.7%,> 5%
"C[C@]12Cc3cnn(-c4ccc(F)cc4)c3C=C1CC[C@@H]2CN(CCO)S(=O)(=O)c1ccc(F)c(Cl)c1 [Example 19, 3-chloro-4-fluoro-N-{[(4αR,5S)-1-(4-fluorophenyl)-4α-methyl-1,4,4α,5,6,7-hexahydrocyclopenta[f]indazol-5-yl]methyl}-N-(2-hydroxyethyl)benzenesulfonamide]",49.1%,1.72 µM,69.8%,> 5%
"CN(C[C@H]1CCC2=Cc3c(cnn3-c3ccc(F)cc3)C[C@@]21C)S(=O)(=O)CC(F)(F)F [Example 177, 2,2,2-trifluoro-N-{[(4αR,5S)-1-(4-fluorophenyl)-4α-methyl-1,4,4α,5,6,7-hexahydrocyclopenta[f]indazol-5-yl]methyl}-N-methylethanesulfonamide]",12.9%,0.177 µM,80.2%,> 5%
"CNC(=O)Nc1ccc(S(=O)(=O)N(CC2CC2)C[C@H]2CCC3=Cc4c(cnn4-c4ccc(F)cc4)C[C@@]32C)c(Cl)c1 [Example 14, 2-chloro-N-(cyclopropylmethyl)-N-{[(4αR,5S)-1-(4-fluorophenyl)-4α-methyl-1,4,4α,5,6,7-hexahydrocyclopenta[f]indazol-5-yl]methyl}-4-{[(methylamino)carbonyl]amino}-benzenesulfonamide]",34.1%,0.553 µM,59.3%,> 5%
